{
  "source": "PubChem BioAssay AID2060506",
  "about": "(Molecular Pharmacology Branch, DTP, NCI, 2025);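 further: spheroids exposed to the agents for one week before reading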;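 on viability, T/C: percent of vehicle DMSO control viability so 100% = untreated growth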",
  "test_system": "598228-144-R-J1-PDC complex spheroid viability",
  "test": "Anticancer human tumor 598228-144-R-J1-PDC patient-derived serous endometrial adenocarcinoma cell line growth inhibition [GQUAD]",
  "conditions": "for IC50: curve of first compound; for viability, T/C: stronger effect = lower value",
  "method_in_brief": "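Tumor cells were grown as complex spheroids with HUVEC endothelial cells and mesenchymal stem cells as stroma. G-quadruplex stabilizers were combined with targeted agents over half-log dilutions from near the clinical Cmax, or from 10 microM.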",
  "key": {"[1]": {"conditions": "second compound 0.0316 µM, first compound 0.0316 µM"}, "[2]": {"conditions": "second compound 0.0316 µM, first compound 0.1 µM"}, "[3]": {"conditions": "second compound 0.0316 µM, first compound 0.316 µM"}, "[4]": {"conditions": "second compound 0.0316 µM, first compound 1 µM"}, "[5]": {"conditions": "second compound 0.0316 µM, first compound 3.16 µM"}, "[6]": {"conditions": "second compound 0.0316 µM, first compound 10 µM"}, "[7]": {"conditions": "second compound 0.1 µM, first compound 0.0316 µM"}, "[8]": {"conditions": "second compound 0.1 µM, first compound 0.1 µM"}, "[9]": {"conditions": "second compound 0.1 µM, first compound 0.316 µM"}, "[10]": {"conditions": "second compound 0.1 µM, first compound 1 µM"}, "[11]": {"conditions": "second compound 0.1 µM, first compound 3.16 µM"}, "[12]": {"conditions": "second compound 0.1 µM, first compound 10 µM"}, "[13]": {"conditions": "second compound 0.316 µM, first compound 0.0316 µM"}, "[14]": {"conditions": "second compound 0.316 µM, first compound 0.1 µM"}, "[15]": {"conditions": "second compound 0.316 µM, first compound 0.316 µM"}, "[16]": {"conditions": "second compound 0.316 µM, first compound 1 µM"}, "[17]": {"conditions": "second compound 0.316 µM, first compound 3.16 µM"}, "[18]": {"conditions": "second compound 0.316 µM, first compound 10 µM"}, "[19]": {"conditions": "second compound 1 µM, first compound 0.0316 µM"}, "[20]": {"conditions": "second compound 1 µM, first compound 0.1 µM"}, "[21]": {"conditions": "second compound 1 µM, first compound 0.316 µM"}, "[22]": {"conditions": "second compound 1 µM, first compound 1 µM"}, "[23]": {"conditions": "second compound 1 µM, first compound 3.16 µM"}, "[24]": {"conditions": "second compound 1 µM, first compound 10 µM"}, "[25]": {"conditions": "second compound 3.16 µM, first compound 0.0316 µM"}, "[26]": {"conditions": "second compound 3.16 µM, first compound 0.1 µM"}, "[27]": {"conditions": "second compound 3.16 µM, first compound 0.316 µM"}, "[28]": {"conditions": "second compound 3.16 µM, first compound 1 µM"}, "[29]": {"conditions": "second compound 3.16 µM, first compound 3.16 µM"}, "[30]": {"conditions": "second compound 3.16 µM, first compound 10 µM"}, "[31]": {"conditions": "second compound 10 µM, first compound 0.0316 µM"}, "[32]": {"conditions": "second compound 10 µM, first compound 0.1 µM"}, "[33]": {"conditions": "second compound 10 µM, first compound 0.316 µM"}, "[34]": {"conditions": "second compound 10 µM, first compound 1 µM"}, "[35]": {"conditions": "second compound 10 µM, first compound 3.16 µM"}, "[36]": {"conditions": "second compound 10 µM, first compound 10 µM"}},
  "data": [
    {"smiles": "CC(C)n1c(=O)n(C)c2cnc3cc(F)c(-c4ccc(OCCCN5CCCCC5)nc4)cc3c21", "note": "+ Cc1[nH]c2ccc(F)cc2c1-c1nc2c3cccnc3c3ncccc3c2[nH]1", "values": [
      {"measurement": "IC50", "setting": "second compound 0.0316 µM", "value": "> 10", "unit": "µM"},
      {"measurement": "IC50", "setting": "second compound 0.1 µM", "value": "> 10", "unit": "µM"},
      {"measurement": "IC50", "setting": "second compound 0.316 µM", "value": "> 10", "unit": "µM"},
      {"measurement": "IC50", "setting": "second compound 1 µM", "value": 5.12, "unit": "µM"},
      {"measurement": "IC50", "setting": "second compound 3.16 µM", "value": "< 0.0316", "unit": "µM"},
      {"measurement": "IC50", "setting": "second compound 10 µM", "value": "> 10", "unit": "µM"},
      {"measurement": "viability, T/C", "setting": "[1]", "value": 116, "unit": "%"},
      {"measurement": "viability, T/C", "setting": "[2]", "value": 100, "unit": "%"},
      {"measurement": "viability, T/C", "setting": "[3]", "value": 117, "unit": "%"},
      {"measurement": "viability, T/C", "setting": "[4]", "value": 121, "unit": "%"},
      {"measurement": "viability, T/C", "setting": "[5]", "value": 106, "unit": "%"},
      {"measurement": "viability, T/C", "setting": "[6]", "value": 65, "unit": "%"},
      {"measurement": "viability, T/C", "setting": "[7]", "value": 107, "unit": "%"},
      {"measurement": "viability, T/C", "setting": "[8]", "value": 108, "unit": "%"},
      {"measurement": "viability, T/C", "setting": "[9]", "value": 95.4, "unit": "%"},
      {"measurement": "viability, T/C", "setting": "[10]", "value": 94.4, "unit": "%"},
      {"measurement": "viability, T/C", "setting": "[11]", "value": 91.7, "unit": "%"},
      {"measurement": "viability, T/C", "setting": "[12]", "value": 77, "unit": "%"},
      {"measurement": "viability, T/C", "setting": "[13]", "value": 90.8, "unit": "%"},
      {"measurement": "viability, T/C", "setting": "[14]", "value": 97.2, "unit": "%"},
      {"measurement": "viability, T/C", "setting": "[15]", "value": 93.9, "unit": "%"},
      {"measurement": "viability, T/C", "setting": "[16]", "value": 87.4, "unit": "%"},
      {"measurement": "viability, T/C", "setting": "[17]", "value": 101, "unit": "%"},
      {"measurement": "viability, T/C", "setting": "[18]", "value": 62.2, "unit": "%"},
      {"measurement": "viability, T/C", "setting": "[19]", "value": 72.6, "unit": "%"},
      {"measurement": "viability, T/C", "setting": "[20]", "value": 60.6, "unit": "%"},
      {"measurement": "viability, T/C", "setting": "[21]", "value": 59.2, "unit": "%"},
      {"measurement": "viability, T/C", "setting": "[22]", "value": 60.6, "unit": "%"},
      {"measurement": "viability, T/C", "setting": "[23]", "value": 59.2, "unit": "%"},
      {"measurement": "viability, T/C", "setting": "[24]", "value": 39.5, "unit": "%"},
      {"measurement": "viability, T/C", "setting": "[25]", "value": 45.2, "unit": "%"},
      {"measurement": "viability, T/C", "setting": "[26]", "value": 47.4, "unit": "%"},
      {"measurement": "viability, T/C", "setting": "[27]", "value": 40.8, "unit": "%"},
      {"measurement": "viability, T/C", "setting": "[28]", "value": 39.3, "unit": "%"},
      {"measurement": "viability, T/C", "setting": "[29]", "value": 29.5, "unit": "%"},
      {"measurement": "viability, T/C", "setting": "[30]", "value": 27.3, "unit": "%"},
      {"measurement": "viability, T/C", "setting": "[31]", "value": 66, "unit": "%"},
      {"measurement": "viability, T/C", "setting": "[32]", "value": 57.9, "unit": "%"},
      {"measurement": "viability, T/C", "setting": "[33]", "value": 52.9, "unit": "%"},
      {"measurement": "viability, T/C", "setting": "[34]", "value": 54.1, "unit": "%"},
      {"measurement": "viability, T/C", "setting": "[35]", "value": 55.4, "unit": "%"},
      {"measurement": "viability, T/C", "setting": "[36]", "value": 46.5, "unit": "%"}
    ]},
    {"smiles": "CC1COCCN1c1cc(C2(S(C)(=N)=O)CC2)nc(-c2ccnc3[nH]ccc23)n1", "note": "(centres undefined) + Cc1cnc(CNC(=O)c2c(=O)c3ccc(N4CCCN(C)CC4)nc3n3c2sc2ccccc23)cn1", "values": [
      {"measurement": "IC50", "setting": "second compound 0.0316 µM", "value": 6.99, "unit": "µM"},
      {"measurement": "IC50", "setting": "second compound 0.1 µM", "value": 3.71, "unit": "µM"},
      {"measurement": "IC50", "setting": "second compound 0.316 µM", "value": 2.91, "unit": "µM"},
      {"measurement": "IC50", "setting": "second compound 1 µM", "value": 3.27, "unit": "µM"},
      {"measurement": "IC50", "setting": "second compound 3.16 µM", "value": "< 0.0316", "unit": "µM"},
      {"measurement": "IC50", "setting": "second compound 10 µM", "value": "< 0.0316", "unit": "µM"},
      {"measurement": "viability, T/C", "setting": "[1]", "value": 79.9, "unit": "%"},
      {"measurement": "viability, T/C", "setting": "[2]", "value": 93.9, "unit": "%"},
      {"measurement": "viability, T/C", "setting": "[3]", "value": 71.1, "unit": "%"},
      {"measurement": "viability, T/C", "setting": "[4]", "value": 62.4, "unit": "%"},
      {"measurement": "viability, T/C", "setting": "[5]", "value": 87.8, "unit": "%"},
      {"measurement": "viability, T/C", "setting": "[6]", "value": 36.9, "unit": "%"},
      {"measurement": "viability, T/C", "setting": "[7]", "value": 74, "unit": "%"},
      {"measurement": "viability, T/C", "setting": "[8]", "value": 61.2, "unit": "%"},
      {"measurement": "viability, T/C", "setting": "[9]", "value": 72.7, "unit": "%"},
      {"measurement": "viability, T/C", "setting": "[10]", "value": 68.7, "unit": "%"},
      {"measurement": "viability, T/C", "setting": "[11]", "value": 53.1, "unit": "%"},
      {"measurement": "viability, T/C", "setting": "[12]", "value": 30.2, "unit": "%"},
      {"measurement": "viability, T/C", "setting": "[13]", "value": 83.1, "unit": "%"},
      {"measurement": "viability, T/C", "setting": "[14]", "value": 63.8, "unit": "%"},
      {"measurement": "viability, T/C", "setting": "[15]", "value": 62.8, "unit": "%"},
      {"measurement": "viability, T/C", "setting": "[16]", "value": 55.9, "unit": "%"},
      {"measurement": "viability, T/C", "setting": "[17]", "value": 57.8, "unit": "%"},
      {"measurement": "viability, T/C", "setting": "[18]", "value": 38.1, "unit": "%"},
      {"measurement": "viability, T/C", "setting": "[19]", "value": 65.2, "unit": "%"},
      {"measurement": "viability, T/C", "setting": "[20]", "value": 57.2, "unit": "%"},
      {"measurement": "viability, T/C", "setting": "[21]", "value": 58.7, "unit": "%"},
      {"measurement": "viability, T/C", "setting": "[22]", "value": 60.9, "unit": "%"},
      {"measurement": "viability, T/C", "setting": "[23]", "value": 49.3, "unit": "%"},
      {"measurement": "viability, T/C", "setting": "[24]", "value": 32.4, "unit": "%"},
      {"measurement": "viability, T/C", "setting": "[25]", "value": 48.8, "unit": "%"},
      {"measurement": "viability, T/C", "setting": "[26]", "value": 49.9, "unit": "%"},
      {"measurement": "viability, T/C", "setting": "[27]", "value": 51.8, "unit": "%"},
      {"measurement": "viability, T/C", "setting": "[28]", "value": 39.9, "unit": "%"},
      {"measurement": "viability, T/C", "setting": "[29]", "value": 49.2, "unit": "%"},
      {"measurement": "viability, T/C", "setting": "[30]", "value": 26.4, "unit": "%"},
      {"measurement": "viability, T/C", "setting": "[31]", "value": 41.7, "unit": "%"},
      {"measurement": "viability, T/C", "setting": "[32]", "value": 30.1, "unit": "%"},
      {"measurement": "viability, T/C", "setting": "[33]", "value": 34.1, "unit": "%"},
      {"measurement": "viability, T/C", "setting": "[34]", "value": 15.1, "unit": "%"},
      {"measurement": "viability, T/C", "setting": "[35]", "value": 33.7, "unit": "%"},
      {"measurement": "viability, T/C", "setting": "[36]", "value": 6, "unit": "%"}
    ]}
  ]
}
